Experimental data as given in patent US9944602B2, “Piperidinone herbicides” (E. I. DU PONT DE NEMOURS AND COMPANY, priority 2014, dated 2018).

Tests used:
Format in all cases: in vivo
[1] = test system: corn (Zea mays); assay: Test A preemergence corn; settings: 0 to 100 scale; for Corn plant response rating: 125 g ai/ha, 0 no effect, 100 complete control; for Plant response rating, Corn: 500 g ai/ha, 0 is no effect, 100 is complete control
Source text: (§1) Seeds of plant species selected from barnyardgrass (Echinochloa crus-galli), kochia (Kochia scoparia), ragweed (common ragweed, Ambrosia elatior), ryegrass, Italian (Italian ryegrass, Lolium multiflorum), crabgrass, large (large crabgrass, Digitaria sanguinalis), foxtail, giant (giant foxtail, Setaria faberii), morningglory (Ipomoea spp.), pigweed (Amaranthus retroflexus), velvetleaf (Abutilon theophrasti), wheat (Triticum aestivum), and corn (Zea mays) were planted into a blend of loam soil and sand and treated preemergence with a directed soil spray using test chemicals formulated in a non-phytotoxic solvent mixture which included a surfactant.
(§2) At the same time, plants selected from these crop and weed species and also blackgrass (Alopecurus myosuroides), and galium (catchweed bedstraw, Galium aparine) were planted in pots containing the same blend of loam soil and sand and treated with postemergence applications of test chemicals formulated in the same manner. Plants ranged in height from 2 to 10 cm and were in the one- to two-leaf stage for the postemergence treatment. Treated plants and untreated controls were maintained in a greenhouse for approximately 10 d, after which time all treated plants were compared to untreated controls and visually evaluated for injury. Plant response ratings, summarized in Table A, are based on a 0 to 100 scale where 0 is no effect and 100 is complete control. A dash (-) response means no test result.

[2] = test system: crabgrass, large (large crabgrass, Digitaria sanguinalis); assay: Test A preemergence crabgrass, large; settings: 0 to 100 scale; for Crabgrass, Large plant response rating: 125 g ai/ha, 0 no effect, 100 complete control; for Plant response rating, Crabgrass, Large: 500 g ai/ha, 0 is no effect, 100 is complete control
Source text: as §1, §2

[3] = test system: morningglory (Ipomoea spp.); assay: Test A preemergence morningglory; settings: 0 to 100 scale, 0 no effect, 100 complete control
Source text: as §1, §2

[4] = test system: johnsongrass (Sorghum halepense); assay: Test C preemergence johnsongrass; settings: Table C, scale 0 to 100
Source text: (§3) Seeds of plant species selected from blackgrass (Alopecurus myosuroides), ryegrass, Italian (Italian ryegrass, Lolium multiflorum), wheat (winter wheat, Triticum aestivum), galium (catchweed bedstraw, Galium aparine), corn (Zea mays), crabgrass, large (large crabgrass, Digitaria sanguinalis), foxtail, giant (giant foxtail, Setaria faberii), johnsongrass (Sorghum halepense), lambsquarters (Chenopodium album), morningglory (Ipomoea coccinea), yellow (yellow nutsedge, Cyperus esculentus), pigweed (Amaranthus retroflexus), ragweed (common ragweed, Ambrosia elatior), soybean (Glycine max), barnyardgrass (Echinochloa crus-galli), oilseed rape (Brassica napus), waterhemp (common waterhemp, Amaranthus rudis), and velvetleaf (Abutilon theophrasti) were planted into a blend of loam soil and sand and treated preemergence with test chemicals formulated in a non-phytotoxic solvent mixture which included a surfactant. At the same time, plants selected from these crop and weed species and also chickweed (common chickweed, Stellaria media), kochia (Kochia scoparia), and oat, wild (wild oat, Avena fatua) were planted in pots containing Sunshine Redi-Earth® planting medium comprising spaghnum peat moss, vermiculite, starter nutrients and dolomitic limestone and treated with postemergence applications of test chemicals formulated in the same manner. Plants ranged in height from 2 to 18 cm (1- to 4-leaf stage) for postemergence treatments. Treated plants and controls were maintained in a greenhouse for 13 to 15 days, after which time all species were compared to controls and visually evaluated. Plant response ratings, summarized in Table C, are based on a scale of 0 to 100 where 0 is no effect and 100 is complete control. A dash (-) response means no test result.

[5] = test system: ragweed (common ragweed, Ambrosia elatior); assay: Test C preemergence ragweed; settings: Table C, scale 0 to 100
Source text: as §3

[6] = test system: lambsquarters (Chenopodium album); assay: Test C preemergence lambsquarters; settings: Table C, scale 0 to 100
Source text: as §3

[7] = test system: foxtail, giant (giant foxtail, Setaria faberii); assay: Test C preemergence foxtail, giant; settings: Table C, scale 0 to 100
Source text: as §3

[8] = test system: pigweed (Amaranthus retroflexus); assay: Test C postemergence pigweed; settings: Table C, scale 0 to 100
Source text: as §3

[9] = test system: yellow (yellow nutsedge, Cyperus esculentus); assay: Test C preemergence yellow nutsedge; settings: Table C, scale 0 to 100
Source text: as §3

[10] = test system: oat, wild (wild oat, Avena fatua); assay: Test C postemergence oat, wild; settings: Table C, scale 0 to 100
Source text: as §3

[11] = test system: oilseed rape (Brassica napus); assay: Test C preemergence oilseed rape; settings: Table C, scale 0 to 100
Source text: as §3

[12] = test system: corn (Zea mays); assay: Test C preemergence corn; settings: Table C, scale 0 to 100
Source text: as §3

[13] = test system: soybean (Glycine max); assay: Test C postemergence soybean; settings: Table C, scale 0 to 100
Source text: as §3

[14] = test system: morningglory (Ipomoea coccinea); assay: Test C postemergence morningglory; settings: Table C, scale 0 to 100
Source text: as §3

[15] = test system: oilseed rape (Brassica napus); assay: Test C postemergence oilseed rape; settings: Table C, scale 0 to 100
Source text: as §3

[16] = test system: blackgrass (Alopecurus myosuroides); assay: Test C postemergence blackgrass; settings: Table C, scale 0 to 100
Source text: as §3

[17] = test system: lambsquarters (Chenopodium album); assay: Test C postemergence lambsquarters; settings: Table C, scale 0 to 100
Source text: as §3

[18] = test system: velvetleaf (Abutilon theophrasti); assay: Test C preemergence velvetleaf; settings: Table C, scale 0 to 100
Source text: as §3

[19] = test system: corn (Zea mays); assay: Test C postemergence corn; settings: Table C, scale 0 to 100
Source text: as §3

O=C1NCCC(c2cccc(C(F)(F)F)c2)C1C(=O)Nc1ccccc1C(F)(F)F (stereo not drawn) [Compound 10, 2-oxo-N-[2-(trifluoromethyl)phenyl)-4-[3-(trifluoromethyl)phenyl]-3-piperidinecarboxamide]
Corn plant response rating [1]: 0
Plant response rating, Corn [1]: 0
Crabgrass, Large plant response rating [2]: 90
Plant response rating, Crabgrass, Large [2]: 100
Morningglory plant response rating ([3]; 125 g ai/ha): 0
Morningglory plant response rating ([3]; 500 g ai/ha): 0

O=C1NCCC(c2cccc(C(F)(F)F)c2)C1C(=O)Nc1cccc(F)c1F (stereo not drawn) [Compound 9, N-(2,3-difluorophenyl)-2-oxo-4-[3-(trifluoromethyl)phenyl]-3-piperidinecarboxamide]
Plant response rating ([4]; 31 g ai/ha): 0
Plant response rating ([4]; 62 g ai/ha): 0
Plant response rating ([4]; 125 g ai/ha): 35
Plant response rating ([4]; 250 g ai/ha): 55
Plant response rating ([5]; 31 g ai/ha): 0
Plant response rating ([5]; 62 g ai/ha): 0
Plant response rating ([5]; 125 g ai/ha): 10
Plant response rating ([5]; 250 g ai/ha): 20
Plant response rating ([6]; 31 g ai/ha): 0
Plant response rating ([6]; 62 g ai/ha): 0
Plant response rating ([6]; 125 g ai/ha): 0
Plant response rating ([6]; 250 g ai/ha): 0
Plant response rating ([7]; 31 g ai/ha): 90
Plant response rating ([7]; 62 g ai/ha): 95
Plant response rating ([7]; 125 g ai/ha): 95
Plant response rating ([7]; 250 g ai/ha): 98
Plant response rating ([8]; 31 g ai/ha): 0
Plant response rating ([8]; 62 g ai/ha): 0
Plant response rating ([8]; 125 g ai/ha): 5
Plant response rating ([8]; 250 g ai/ha): 5
Plant response rating ([9]; 31 g ai/ha): 0
Plant response rating ([9]; 62 g ai/ha): 0
Plant response rating ([9]; 125 g ai/ha): 0
Plant response rating ([9]; 250 g ai/ha): 0
Corn plant response rating [1]: 20
Plant response rating, Corn [1]: 70
Plant response rating ([10]; 31 g ai/ha): 0
Plant response rating ([10]; 62 g ai/ha): 0
Plant response rating ([10]; 125 g ai/ha): 0
Plant response rating ([10]; 250 g ai/ha): 0
Plant response rating ([11]; 31 g ai/ha): 0
Plant response rating ([11]; 62 g ai/ha): 0
Plant response rating ([11]; 125 g ai/ha): 0
Plant response rating ([11]; 250 g ai/ha): 40
Plant response rating ([12]; 31 g ai/ha): 0
Plant response rating ([12]; 62 g ai/ha): 0
Plant response rating ([12]; 125 g ai/ha): 75
Plant response rating ([12]; 250 g ai/ha): 90
Crabgrass, Large plant response rating [2]: 90
Plant response rating, Crabgrass, Large [2]: 100
Plant response rating ([13]; 31 g ai/ha): 0
Plant response rating ([13]; 62 g ai/ha): 0
Plant response rating ([13]; 125 g ai/ha): 0
Plant response rating ([13]; 250 g ai/ha): 10
Plant response rating ([14]; 31 g ai/ha): 0
Plant response rating ([14]; 62 g ai/ha): 0
Plant response rating ([14]; 125 g ai/ha): 30
Plant response rating ([14]; 250 g ai/ha): 40
Plant response rating ([15]; 31 g ai/ha): 0
Plant response rating ([15]; 62 g ai/ha): 0
Plant response rating ([15]; 125 g ai/ha): 0
Plant response rating ([15]; 250 g ai/ha): 5
Plant response rating ([16]; 31 g ai/ha): 0
Plant response rating ([16]; 62 g ai/ha): 0
Plant response rating ([16]; 125 g ai/ha): 0
Plant response rating ([16]; 250 g ai/ha): 0
Plant response rating ([17]; 31 g ai/ha): 0
Plant response rating ([17]; 62 g ai/ha): 0
Plant response rating ([17]; 125 g ai/ha): 5
Plant response rating ([17]; 250 g ai/ha): 0
Plant response rating ([18]; 31 g ai/ha): 0
Plant response rating ([18]; 62 g ai/ha): 5
Plant response rating ([18]; 125 g ai/ha): 0
Plant response rating ([18]; 250 g ai/ha): 0
Plant response rating ([19]; 31 g ai/ha): 0
Plant response rating ([19]; 62 g ai/ha): 0
Plant response rating ([19]; 125 g ai/ha): 0
Plant response rating ([19]; 250 g ai/ha): 0
Morningglory plant response rating ([3]; 125 g ai/ha): 0
Morningglory plant response rating ([3]; 500 g ai/ha): 0

O=C1NCCC(c2cccc(C(F)(F)F)c2)C1C(=O)Nc1ccccc1Cl (racemic) [Compound 17]
Plant response rating ([8]; 31 g ai/ha): 0
Plant response rating ([8]; 62 g ai/ha): 0
Plant response rating ([8]; 125 g ai/ha): 0
Plant response rating ([8]; 250 g ai/ha): 5
Plant response rating ([10]; 31 g ai/ha): 0
Plant response rating ([10]; 62 g ai/ha): 0
Plant response rating ([10]; 125 g ai/ha): 0
Plant response rating ([10]; 250 g ai/ha): 0
Plant response rating ([13]; 31 g ai/ha): 0
Plant response rating ([13]; 62 g ai/ha): 10
Plant response rating ([13]; 125 g ai/ha): 0
Plant response rating ([13]; 250 g ai/ha): 0
Plant response rating ([14]; 31 g ai/ha): 0
Plant response rating ([14]; 62 g ai/ha): 0
Plant response rating ([14]; 125 g ai/ha): 0
Plant response rating ([14]; 250 g ai/ha): 5
Plant response rating ([15]; 31 g ai/ha): 0
Plant response rating ([15]; 62 g ai/ha): 0
Plant response rating ([15]; 125 g ai/ha): 0
Plant response rating ([15]; 250 g ai/ha): 0
Plant response rating ([16]; 31 g ai/ha): 0
Plant response rating ([16]; 62 g ai/ha): 0
Plant response rating ([16]; 125 g ai/ha): 0
Plant response rating ([16]; 250 g ai/ha): 0
Plant response rating ([17]; 62 g ai/ha): 75
Plant response rating ([17]; 250 g ai/ha): 80
Plant response rating ([19]; 31 g ai/ha): 0
Plant response rating ([19]; 62 g ai/ha): 0
Plant response rating ([19]; 125 g ai/ha): 0
Plant response rating ([19]; 250 g ai/ha): 0

O=C1NCCC(c2cccc(C(F)(F)F)c2)C1C(=O)Nc1ccc(F)c(F)c1F (racemic) [Compound 28]
Plant response rating ([4]; 31 g ai/ha): 0
Plant response rating ([4]; 62 g ai/ha): 0
Plant response rating ([4]; 125 g ai/ha): 0
Plant response rating ([4]; 250 g ai/ha): 10
Plant response rating ([5]; 31 g ai/ha): 0
Plant response rating ([5]; 62 g ai/ha): 0
Plant response rating ([5]; 125 g ai/ha): 0
Plant response rating ([5]; 250 g ai/ha): 0
Plant response rating ([6]; 31 g ai/ha): 5
Plant response rating ([6]; 62 g ai/ha): 5
Plant response rating ([6]; 125 g ai/ha): 5
Plant response rating ([6]; 250 g ai/ha): 15
Plant response rating ([7]; 31 g ai/ha): 60
Plant response rating ([7]; 62 g ai/ha): 85
Plant response rating ([7]; 125 g ai/ha): 95
Plant response rating ([7]; 250 g ai/ha): 95
Plant response rating ([9]; 31 g ai/ha): 0
Plant response rating ([9]; 62 g ai/ha): 0
Plant response rating ([9]; 125 g ai/ha): 10
Plant response rating ([9]; 250 g ai/ha): 50
Plant response rating ([11]; 31 g ai/ha): 0
Plant response rating ([11]; 62 g ai/ha): 0
Plant response rating ([11]; 125 g ai/ha): 0
Plant response rating ([11]; 250 g ai/ha): 0
Plant response rating ([12]; 31 g ai/ha): 0
Plant response rating ([12]; 62 g ai/ha): 0
Plant response rating ([12]; 125 g ai/ha): 30
Plant response rating ([12]; 250 g ai/ha): 55
Plant response rating ([18]; 31 g ai/ha): 10
Plant response rating ([18]; 62 g ai/ha): 0
Plant response rating ([18]; 125 g ai/ha): 20
Plant response rating ([18]; 250 g ai/ha): 20
